From ChEMBL document CHEMBL1201862, “PubChem BioAssay data set” (2004) come the findings set out here.

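Cultured in 96-well plates, cells were exposed to test compound for 48 hours across five concentrations. At the GI50, growth is halved.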 The source made the active and inactive calls. No stated cut-off is given here; in the data, active = GI50 up to about 1.1 µM and inactive = higher.

Among the test systems are MOLT-4; UACC-257; A549; SF-268; NCI-H460; OVCAR-5; UO-31; HCT-116; 786-0; COLO 205; M14; OVCAR-8; CCRF-CEM; CAKI-1; SF-295; HOP-92; TK-10; A498.
Holding throughout (test): DTP human tumour cell line panel, 48 h

As for `CCCN(CCC)c1c([N+](=O)[O-])cc(S(N)(=O)=O)cc1[N+](=O)[O-]` [ORYZALIN], the GI50 (as a rule, the concentration that inhibits growth by half) in the assay on MOLT-4 was 20.7 µM (inactive); with UACC-257, 18.9 µM (inactive); in the assay on A549 it was 16.4 µM (inactive); with SF-268, 18.3 µM (inactive); in the assay on NCI-H460, 14.6 µM (inactive); with OVCAR-5 it was 22.4 µM (inactive). Moreover, the GI50 with UO-31 was 18.6 µM (inactive); with HCT-116, 18 µM (inactive); in the assay with 786-0 it was 16.7 µM (inactive); with COLO 205 it was 21.8 µM (inactive); in the assay on M14, 16.9 µM (inactive); in the assay with OVCAR-8, 19.1 µM (inactive). Moreover, the GI50 in the assay on CCRF-CEM is 16.8 µM (inactive); in the assay on CAKI-1, 13.6 µM (inactive); with SF-295, 16.7 µM (inactive).
Regarding `CCN(CC)C(c1ccc(N(C)C)cc1)C(c1ccc(N(C)C)cc1)N(CC)CC` (stereo not drawn), the GI50 was 30.3 µM (inactive) in the assay on MOLT-4; 36.6 µM (inactive) in the assay with UACC-257; > 72.9 µM (inactive) in the assay with A549; 65 µM (inactive) in the assay with SF-268; 69.2 µM (inactive) in the assay with NCI-H460; > 72.9 µM (inactive) in the assay with OVCAR-5. In addition, the GI50 is 35.2 µM (inactive) in the assay with HCT-116; 61.2 µM (inactive) in the assay with 786-0; 43.3 µM (inactive) in the assay with COLO 205; 33.3 µM (inactive) in the assay with M14; 13.2 µM (inactive) with HOP-92; > 72.9 µM (inactive) in the assay on OVCAR-8. The GI50 is 26 µM (inactive) in the assay with CCRF-CEM; > 72.9 µM (inactive) in the assay with TK-10; 25.9 µM (inactive) in the assay on CAKI-1; 39.2 µM (inactive) in the assay with SF-295; > 72.9 µM (inactive) in the assay on A498.
Turning to `O=C1c2cccc([N+](=O)[O-])c2C(=O)c2nccnc21`, the GI50 in the assay with MOLT-4 was 2.5 µM (inactive); in the assay on UACC-257 it was 0.502 µM (active); in the assay on A549 it was 1.66 µM (inactive); with NCI-H460, 1.46 µM (inactive); with OVCAR-5, 3.81 µM (inactive); in the assay with UO-31 it was 1.27 µM (inactive). For the same compound, the GI50 with HCT-116 is 1.63 µM (inactive); with 786-0 it was 1.78 µM (inactive); in the assay with M14, 1.57 µM (inactive); with HOP-92 it was 7.1 µM (inactive); in the assay on OVCAR-8, 2.25 µM (inactive); with CCRF-CEM, 2.54 µM (inactive). In addition, the GI50 with TK-10 is 2.06 µM (inactive); with CAKI-1, 4.86 µM (inactive); in the assay on SF-295 it was 1.82 µM (inactive); with A498, 5.32 µM (inactive).
As to `Oc1ccc2occ3c2c1CCC3`, the GI50 in the assay with MOLT-4, with UACC-257, in the assay with A549, in the assay on NCI-H460, in the assay on HCT-116 and in the assay with 786-0 was > 100 µM (inactive) in each case. Moreover, the GI50 was > 100 µM (inactive) in the assay with COLO 205; > 100 µM (inactive) in the assay with M14; 29.2 µM (inactive) with HOP-92; > 100 µM (inactive) with OVCAR-8; > 100 µM (inactive) in the assay with CCRF-CEM; > 100 µM (inactive) in the assay with TK-10. Moreover, the GI50 with CAKI-1, in the assay on SF-295 and with A498 was > 100 µM (inactive) in each case.
With `O=C(O)c1ccc(C2C(=O)N[C@@H]3CCC[C@H]23)cc1` (stereo partly drawn), the GI50 in the assay with MOLT-4, with UACC-257, in the assay on A549, in the assay on SF-268, with NCI-H460 and with OVCAR-5 was > 100 µM (inactive) in each case. The GI50 in the assay on UO-31, with HCT-116, with 786-0, in the assay on COLO 205, with M14 and in the assay with OVCAR-8 was > 100 µM (inactive) each time. In addition, the GI50 in the assay on CCRF-CEM, in the assay on TK-10, in the assay with CAKI-1, with SF-295 and in the assay with A498 was > 100 µM (inactive) throughout.
Regarding `COc1ccc(/C(=C/n2ccnc2)C(=O)c2ccc(OC)c(OC)c2)cc1`, the GI50 in the assay on MOLT-4, with UACC-257, in the assay with A549, in the assay on SF-268, in the assay with NCI-H460 and in the assay with OVCAR-5 was > 100 µM (inactive) in each case. The GI50 in the assay with UO-31, with HCT-116, in the assay with 786-0, with COLO 205, with M14 and in the assay with HOP-92 was > 100 µM (inactive) throughout. Also, the GI50 in the assay on OVCAR-8, in the assay on CCRF-CEM, in the assay on TK-10, with CAKI-1 and with A498 was > 100 µM (inactive) throughout.
`NC(=O)c1c([N+](=O)[O-])cc(C(F)(F)F)cc1[N+](=O)[O-]`: the GI50 is > 100 µM (inactive) with MOLT-4; 27 µM (inactive) in the assay with UACC-257; 99.5 µM (inactive) in the assay on A549; > 100 µM (inactive) in the assay on SF-268; 47.4 µM (inactive) in the assay on NCI-H460; > 100 µM (inactive) with OVCAR-5. Moreover, the GI50 was > 100 µM (inactive) in the assay with UO-31; 39 µM (inactive) in the assay on HCT-116; > 100 µM (inactive) with 786-0; 26.1 µM (inactive) with COLO 205; 76.6 µM (inactive) in the assay with M14; > 100 µM (inactive) in the assay on HOP-92. Further, the GI50 in the assay on OVCAR-8, in the assay on TK-10, in the assay with CAKI-1, in the assay on SF-295 and in the assay with A498 was > 100 µM (inactive) throughout.
With `Cc1ccc(-n2cc(/C(N)=N/O)c3ccccc3c2=O)cc1`, the GI50 in the assay with MOLT-4, with UACC-257, in the assay with A549, in the assay with SF-268, in the assay with NCI-H460 and with UO-31 was > 100 µM (inactive) each time. For the same compound, the GI50 in the assay on HCT-116, in the assay with 786-0, in the assay on COLO 205, in the assay on M14, in the assay with OVCAR-8 and with CCRF-CEM was > 100 µM (inactive) throughout. In addition, the GI50 in the assay on TK-10 and with SF-295 was > 100 µM (inactive) each time.
Turning to `COc1ccccc1/C=C(\NC(=O)c1ccccc1)c1nc2ccccc2[nH]1`, the GI50 with MOLT-4 was 36.7 µM (inactive); with UACC-257, 31 µM (inactive); in the assay with A549, 46.8 µM (inactive); in the assay on SF-268, 37.3 µM (inactive); with NCI-H460, 50.8 µM (inactive); in the assay on OVCAR-5, > 100 µM (inactive). The GI50 in the assay with UO-31 was 63.8 µM (inactive); in the assay with HCT-116, 34 µM (inactive); in the assay on 786-0 it was 40.1 µM (inactive); in the assay with COLO 205, 28.8 µM (inactive); in the assay on M14 it was 39.8 µM (inactive); with HOP-92, 28.9 µM (inactive). In addition, the GI50 in the assay with OVCAR-8 was 38 µM (inactive); with CCRF-CEM it was 40.6 µM (inactive); in the assay on TK-10, 39 µM (inactive); in the assay on CAKI-1, 87.3 µM (inactive); in the assay with A498, 56 µM (inactive).
For the compound `Cc1c[nH]c2c1C13CC1CN(C(=O)c1cc4cc(NC(=O)c5cc6ccccc6o5)ccc4[nH]1)C3=CC2=O` (stereo not drawn), the GI50 with MOLT-4, in the assay with UACC-257, with SF-268, in the assay with NCI-H460, in the assay on OVCAR-5 and in the assay with HCT-116 was < 0.001 µM (active) throughout. Moreover, the GI50 in the assay with 786-0, in the assay with COLO 205, with M14, with OVCAR-8, in the assay on CCRF-CEM and in the assay with TK-10 was < 0.001 µM (active) each time. Also, the 50% growth inhibitory concentration (GI50) with CAKI-1, with SF-295 and in the assay on A498 was < 0.001 µM (active) each time.
Regarding `CCOC(=O)C1=C(Nc2ccc(Cl)c(Cl)c2)OC/C1=N\NS(=O)(=O)c1ccc(C)cc1`, the GI50 in the assay with MOLT-4 was 26.3 µM (inactive); with UACC-257, 18.2 µM (inactive); with A549, 52.2 µM (inactive); in the assay with SF-268 it was 45.8 µM (inactive); in the assay on NCI-H460, 34.3 µM (inactive); with OVCAR-5, > 100 µM (inactive). In addition, the GI50 in the assay on UO-31 was 25.1 µM (inactive); in the assay with HCT-116, 22.8 µM (inactive); with 786-0 it was > 100 µM (inactive); in the assay with COLO 205, > 100 µM (inactive); with M14, 73.3 µM (inactive); with OVCAR-8, 75.2 µM (inactive). The GI50 was 27.5 µM (inactive) in the assay with CCRF-CEM; 42.5 µM (inactive) in the assay with TK-10; 44.2 µM (inactive) with CAKI-1; > 100 µM (inactive) in the assay on SF-295; 44.4 µM (inactive) with A498.
For the compound `Clc1ccc2c(Cl)ncnc2c1I`, the GI50 in the assay with MOLT-4 is 24.8 µM (inactive); with UACC-257 it was > 100 µM (inactive); in the assay on A549, > 100 µM (inactive); in the assay with SF-268, > 100 µM (inactive); in the assay on NCI-H460, > 100 µM (inactive); in the assay on OVCAR-5 it was > 100 µM (inactive). For the same compound, the GI50 is 67.8 µM (inactive) in the assay with UO-31; 76.4 µM (inactive) in the assay on HCT-116; > 100 µM (inactive) with 786-0; > 100 µM (inactive) in the assay with COLO 205; 49.8 µM (inactive) in the assay on M14; > 100 µM (inactive) with OVCAR-8. Also, the GI50 in the assay with CCRF-CEM is > 10 µM (inactive); with TK-10 it was > 100 µM (inactive); in the assay with CAKI-1, 64 µM (inactive); in the assay with SF-295 it was > 100 µM (inactive).
